The values below come from patent publication US8431593B2, “Heteroaryl amide derivatives” (H. Lundbeck A/S, priority 2006, dated 2013).

This experiment has as its target T1, P2X7 receptor (Homo sapiens, UniProt Q99572).
T1 construct: host or cells: SH-SY5Y
T1 sequence (Q99572 1-595): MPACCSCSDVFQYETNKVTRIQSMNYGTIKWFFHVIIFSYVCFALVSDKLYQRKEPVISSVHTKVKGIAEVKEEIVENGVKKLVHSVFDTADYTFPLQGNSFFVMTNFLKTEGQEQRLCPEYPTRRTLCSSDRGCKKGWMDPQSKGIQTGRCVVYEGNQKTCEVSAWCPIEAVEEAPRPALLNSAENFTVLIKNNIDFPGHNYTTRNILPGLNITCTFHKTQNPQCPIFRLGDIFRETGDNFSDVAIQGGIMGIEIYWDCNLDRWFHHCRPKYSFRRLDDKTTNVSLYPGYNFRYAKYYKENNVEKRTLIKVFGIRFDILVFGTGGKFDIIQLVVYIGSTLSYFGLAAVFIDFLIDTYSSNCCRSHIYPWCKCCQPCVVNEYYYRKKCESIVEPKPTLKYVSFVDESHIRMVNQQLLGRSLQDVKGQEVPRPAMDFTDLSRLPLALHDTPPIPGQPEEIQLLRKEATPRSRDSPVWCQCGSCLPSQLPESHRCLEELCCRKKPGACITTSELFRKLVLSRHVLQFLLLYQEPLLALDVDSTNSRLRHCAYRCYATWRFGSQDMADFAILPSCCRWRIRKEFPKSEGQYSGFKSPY
The experiment can be described thus: P2X7 calcium mobilization assay, high throughput, antagonist activity (Example 4A). Conditions: 50% decrease in the fluorescence response of cells exposed to 80 μM of 2′(3′)-O-(4-benzoyl-benzoyl)adenosine 5′-triphosphate; Example 4A; read-out: IC50. In kind it is cell-based. The method, boiled down:
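FLIPR^TETRA calcium read-out: maximum RFU per well minus average no-agonist control, with agonist wells giving the average positive maximum. Cells seeded at 100,000/well one day ahead, dye-loaded 1 h, rinsed, then exposed to compound for 1 h at room temperature.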
For the compound `COCCN(C)C1CCN(C(=O)c2cn3c(C(=O)NCC45CC6CC(CC(C6)C4)C5)cccc3n2)CC1` [Compound 720, N-(adamantan-1-ylmethyl)-2-({4-[(2-methoxyethyl)(methyl)amino]piperidin-1-yl}carbonyl)imidazo[l, 2-a]pyridine-5-carboxamide], the IC50 was less than 2000 nM.

With `O=C(NCC12CC3CC(CC(C3)C1)C2)c1cccc2nc(C(=O)N3CCN(C4CCOCC4)CC3)cn12` [Compound 721, N-(adamantan-1-ylmethyl)-2-{[4-(tetrahydro-2H-pyran-4-yl)piperazin-1-yl]carbonyl}imidazo[1,2-a]pyridine-5-carboxamide], the IC50 is less than 2000 nM. For the compound `Cn1ncc2c1CCN(C(=O)c1cn3c(C(=O)NCC45CC6CC(CC(C6)C4)C5)cccc3n1)C2` [Compound 723, N-(adamantan-1-ylmethyl)-2-[(1-methyl-1,4,6,7-tetrahydro-5H-pyrazolo[4,3-c]pyridin-5-yl)carbonyl]imidazo[1,2-a]pyridine-5-carboxamide], the IC50 was less than 2000 nM. The figure for `N[C@@H]1CCCN(C(=O)c2cn3c(C(=O)NCC45CC6CC(CC(C6)C4)C5)cccc3n2)C1` [Compound 724, N-(adamantan-1-ylmethyl)-2-{[(3R)-3-aminopiperidin-1-yl]carbonyl}imidazo[1,2-a]pyridine-5-carboxamide] is less than 2000 nM. The result for `N[C@@H]1CCN(C(=O)c2cn3c(NC(=O)CC45CC6CC(CC(C6)C4)C5)cccc3n2)C1` [Compound 725, 2-adamantan-1-yl-N-(2-{[(3R)-3-aminopyrrolidin-1-yl]carbonyl}imidazo[1,2-a]pyridin-5-yl)acetamide] reads less than 2000 nM. The figure for `O=C(NCC12CC3CC(CC(C3)C1)C2)c1cccc2nc(CC(=O)N3CC[C@@H](NCCO)C3)cn12` [Compound 726, N-(adamantan-1-ylmethyl)-2-(2-{(3R)-3-[(2-hydroxyethyl)amino]pyrrolidin-1-yl}-2-oxoethyl) imidazo[1,2-a]pyridine-5-carboxamide] is less than 2000 nM. As for `O=C(NCC12CC3CC(CC(C3)C1)C2)c1cccc2nc(Cn3cnnn3)cn12` [Compound 727, N-(adamantan-1-ylmethyl)-2-(1H-tetrazol-1-ylmethyl) imidazo[1,2-a]pyridine-5-carboxamide], the 50% inhibitory concentration (IC50) was less than 2000 nM. The result for `CCOC(=O)C(Cc1cn2c(C(=O)NCC34CC5CC(CC(C5)C3)C4)cccc2n1)C(=O)OC(C)(C)C` (centres unmarked) [Compound 728, tert-butyl ethyl ({5-[(adamantan-1-ylmethyl)carbamoyl]imidazo[1,2-a]pyridin-2-yl}methyl)malonate] reads less than 2000 nM; that for `CC(C)CC(CNC(=O)c1cccc2nc(Cn3ccccc3=O)cn12)c1cccnc1` (centres unmarked) [Compound 729, N-(4-methyl-2-pyridin-3-ylpentyl)-2-[(2-oxopyridin-1(2H)-yl)methyl] imidazo[1,2-a]pyridine-5-carboxamide], less than 2000 nM. Take `O=C(NCC12CC3CC(CC(C3)C1)C2)c1cccc2nc(C(Cc3cccnc3)C(=O)O)cn12` (centres unmarked) [Compound 730, 2-{5-[(adamantan-1-ylmethyl)carbamoyl]imidazo[1,2-a]pyridin-2-yl}-3-pyridin-3-ylpropanoic acid]: the 50% inhibitory concentration (IC50) is less than 2000 nM. Take `CC(C)(Cc1cn2c(C(=O)NCC34CC5CC(CC(C5)C3)C4)cccc2n1)C(=O)O` [Compound 731, 3-{5-[(adamantan-1-ylmethyl)carbamoyl]imidazo[1,2-a]pyridin-2-yl}-2,2-dimethylpropanoic acid]: the IC50 was less than 2000 nM.

`O=C(NCC12CC3CC(CC(C3)C1)C2)c1cccc2nc(C(Cc3ccccn3)C(=O)O)cn12` (centres unmarked) [Compound 732, 2-{5-[(adamantan-1-ylmethyl)carbamoyl]imidazo[1,2-a]pyridin-2-yl}-3-pyridin-2-ylpropanoic acid]: the half-inhibitory concentration (IC50) was less than 2000 nM.

For the compound `O=C(NCC12CC3CC(CC(C3)C1)C2)c1cccc2nc(CC3(C(=O)O)SCCS3)cn12` [Compound 733, 2-({5-[(adamantan-1-ylmethyl)carbamoyl]imidazo[1,2-a]pyridin-2-yl}methyl)-1,3-dithiolane-2-carboxylic acid], the IC50 was less than 2000 nM. Take `O=C(NCC12CC3CC(CC(C3)C1)C2)c1cccc2nc(C(Cc3ccncc3)C(=O)O)cn12` (centres unmarked) [Compound 734, 2-{5-[(adamantan-1-ylmethyl)carbamoyl]imidazo[1,2-a]pyridin-2-yl}-3-pyridia-4-ylpropanoic acid]: the IC50 was less than 2000 nM. Turning to `CCOC(=O)C(Cc1ccncc1)c1cn2c(C(=O)NCC34CC5CC(CC(C5)C3)C4)cccc2n1` (centres unmarked) [Compound 735, ethyl 2-{5-[(adamantan-1-ylmethyl)carbamoyl]imidazo[1,2-a]pyridin-2-yl}-3-pyridin-4-ylpropanoate], the IC50 was less than 2000 nM. With `CCOC(=O)C(Cc1ccccn1)c1cn2c(C(=O)NCC34CC5CC(CC(C5)C3)C4)cccc2n1` (centres unmarked) [Compound 736, ethyl 2-{5-[(adamantan-1-ylmethyl)carbamoyl]imidazo[1,2-a]pyridin-2-yl}-3-pyridin-2-ylpropanoate], the IC50 was less than 2000 nM. Regarding `O=C(O)c1nnnn1Cc1cn2c(C(=O)NCC34CC5CC(CC(C5)C3)C4)cccc2n1` [Compound 737, 1-({5-[(adamantan-1-ylmethyl)carbamoyl]imidazo[1,2-a]pyridin-2-yl}methyl)-1H-tetrazole-5-carboxylic acid], the IC50 is less than 2000 nM.

Consider `CC(C)CC(CNC(=O)c1cccc2nc(CN3CC[C@@H](N)C3)cn12)C1CCCCC1` (some centres unmarked) [Compound 739, 2-[(3-aminopyrrolidin-1-yl)methyl]-N-(2-cyclohaxyl-4-methylpentyl)imidazo [1,2-a]pyridine-5-carboxamide], for which the IC50 was less than 2000 nM.

In the case of `CN(C)C1CCCN(C(=O)Cc2cn3c(C(=O)NCC45CC6CC(CC(C6)C4)C5)cccc3n2)C1` (centres unmarked) [Compound 740, N-(adamantan-1-ylmethyl)-2-{2-[3-(dimethylamino)piperidin-1-yl]-2-oxoethyl}imidazo[1,2-a]pyridine-5-carboxamide], the 50% inhibitory concentration (IC50) was less than 2000 nM. The figure for `CC(COS(C)(=O)=O)c1cn2c(C(=O)NCC34CC5CC(CC(C5)C3)C4)cccc2n1` (centres unmarked) [Compound 741, 2-{5-[(adamantan-1-ylmethyl)carbamoyl]imidazo[1,2-a]pyridin-2-yl}propyl methanesulfonate] is less than 2000 nM; for `CC(C)N[C@@H]1CCCN(C(=O)Cc2cn3c(C(=O)NCC45CC6CC(CC(C6)C4)C5)cccc3n2)C1` [Compound 742, N-(adamantan-1-ylmethyl)-2-{2-[(3R)-3-(isopropylamino)piperidin-1-yl]-2-oxoethyl}imidazo[1,2-a]pyridine-5-carboxamide] it is less than 2000 nM; for `CC(C)CC(CNC(=O)c1cccc2nc(CSCCN)cn12)c1cccnc1` (centres unmarked) [Compound 744, 2-{[(2-aminoethyl)thio]methyl}-N-(4-methyl-2-pyridin-3-ylpentyl)imidazo [1,2-a]pyridine-5-carboxamide] it is less than 2000 nM. In the case of `CC(C)N[C@@H]1CCCN(C(=O)c2cn3c(C(=O)NCC45CC6CC(CC(C6)C4)C5)cccc3n2)C1` [Compound 745, N-(adamantan-1-ylmethyl)-2-{[(3R)-3-(isopropylamino)piperidin-1-yl]carbonyl}imidazo[1,2-a]pyridine-5-carboxamide], the IC50 is less than 2000 nM.
